Columns and labels:
[1] = tested on: FGR, MLK1, YES, FLT3, PAK5, LYN, SRC, and LCK; conditions: ref Coffey et al., 2012, Spurgeon et al., 2013, cited from earlier work
SYK(WT)-NL = biological target: T1, SYK(WT)-NL (Homo sapiens, UniProt P43405); experiment: NanoBRET assay in digitonin permeabilized HEK293 cells, SYK(WT)-NL; format: cell-based; conditions: C-terminal NL fusion, tracer 0.5, 1, 2 μM
T1 construct: SYK tracers enable BRET with full-length SYK(WT) after digitonin permeabilization; host or cells: HEK293
Method: We performed NanoBRET tracer optimization to determine if the SYK tracers could effectively generate a BRET signal. […] To enable the NanoBRET assay using tracer 8 with cells permeabilized by digitonin, a tracer dose–response study was performed for each SYK(GoF) variant and SYK(WT) (Figure 3A), followed by tracer titration experiments (Figure 3B; Supplementary Figure S3). […] Initially, we determined the EC50 of tracer 8 for each SYK(GoF) variant and SYK(WT). […] Plates were incubated for 25 min at room temperature if digitonin was added or for 2 h at 37°C in 5% CO2 for the intact cell NanoBRET assay. […] For intact live cells in a 96-well plate, the 3X stock solution was prepared with 30 μL of NanoBRET NanoGlo substrate, 10 μL of extracellular NanoLuc inhibitor, and 4,960 μL of Opti-MEM without phenol red. For digitonin permeabilized live cells in a 96-well plate, the 3X stock solution was prepared with 30 μL of NanoBRET NanoGlo substrate and 4,970 μL of Opti-MEM without phenol red. Raw milliBRET units (mBU) were read on a GloMax Discover system (Promega) with a donor emission wavelength of 450 nm and an acceptor emission wavelength of 600 nm. mBU were calculated by dividing the acceptor emission values (600 nm) by the donor emission values (450 nm). For NanoBRET studies with SYK, background corrected mBU were calculated by subtracting the no tracer wells from the tracer-containing wells and multiplying by 1,000.
HEK293 cells were transfected with constructs of SYK(WT) or SYK(KD) tagged with NL on the C- or N-terminus and SYK GoF variants tagged with NL on the C-terminus. Tracer 8 (20X) was prepared from a 400 μM stock solution in DMSO with tracer dilution buffer (Promega, #N291B) and 20% DMSO, with a final assay plate concentration of 1% DMSO. 5 μL of 8 (20X) was added to each well, with exception of the no tracer control wells, with final plate concentrations of 0.5, 1, and 2 μM. 10 μL of digitonin (Fisher, 10X, 500 μg/mL) was added to specific wells to permeabilize the cells. The 10X digitonin stock was prepared by diluting a 40X DMSO solution of digitonin with room temperature Opti-MEM without phenol red, for a final assay plate concentration of 1% DMSO. SYK inhibitor stock solutions of MRL-SYKi (10X) were prepared from 10 mM DMSO stock solutions with room temperature Opti-MEM without phenol red, for final assay plate concentrations of 10 μM. Plates were incubated for 25 min at room temperature if digitonin was added or for 2 h at 37°C in 5% CO2 for the intact cell NanoBRET assay. Two technical replicates were plotted in a bar chart with the standard deviation represented as error bars on Graphpad Prism.

SYK = biological target: T2, SYK (Homo sapiens, UniProt P43405); experiment: Eurofins DiscoverX SYK enzymatic radiometric assay; format: biochemical; conditions: for IC50: Km value for ATP, 9-pt dose-response
T2 construct: purchased Eurofins DiscoverX (contract assay service)
Description: Eurofins kinase enzymatic radiometric assays were executed at the Km value for ATP in dose–response (9-pt curve) format for SYK, included in Table 1 as enzymatic IC50 values.

SYK(KD)-NL or NL-SYK(KD) = biological target: T3, SYK(KD)-NL or NL-SYK(KD) (Homo sapiens, UniProt P43405); experiment: NanoBRET tracer optimization with SYK kinase domain only constructs; format: cell-based; conditions: with or without digitonin, N- or C-terminal NL
T3 construct: N- and C-terminally-tagged NL SYK kinase domain constructs lacking the tandem SH2 domains were prepared; expressed in transfected cells; host or cells: HEK293
Method: HEK293 cells were transfected with constructs of SYK (WT, KD, and GoF variants) tagged with NL on the N- or C-terminus as previously described ([Wells et al., 2021]). Constructs for NanoBRET measurements of SYK(WT) (NL-SYK(WT) and SYK(WT)-NL) and SYK GoF variants (SYK(S550Y)-NL, SYK(S550F)-NL, SYK(P342T)-NL, SYK(M450I)-NL, and SYK(A353T)-NL) were kindly provided by Promega. NL orientations used in the respective assays are indicated. Cells were plated in 96-well tissue culture-treated plates (Corning, #3917) at a cell density of 2 × 10^5 cells/mL, with a total volume of 100 μL per well in DMEM +10% FBS. After 16 h, the media was aspirated from the plate and replaced with room temperature Opti-MEM without phenol red (Gibco, #11058021), 100 μL in no tracer wells; 95 μL in tracer only wells; 90 μL in no tracer wells and with digitonin treated plates, 90 μL in no tracer wells; 85 μL in tracer only wells; 80 μL in no tracer wells. Plates were incubated for 25 min at room temperature if digitonin was added or for 2 h at 37°C in 5% CO2 for the intact cell NanoBRET assay. NanoBRET plates were read after the addition of 50 μL of a stock solution (3X) containing NanoBRET NanoGlo substrate (Promega, #N2161), extracellular NanoLuc inhibitor (Promega, #N2161) when reading assay plates performed in intact live cells, and Opti-MEM without phenol red (Gibco, #11058021). For intact live cells in a 96-well plate, the 3X stock solution was prepared with 30 μL of NanoBRET NanoGlo substrate, 10 μL of extracellular NanoLuc inhibitor, and 4,960 μL of Opti-MEM without phenol red. For digitonin permeabilized live cells in a 96-well plate, the 3X stock solution was prepared with 30 μL of NanoBRET NanoGlo substrate and 4,970 μL of Opti-MEM without phenol red. Raw milliBRET units (mBU) were read on a GloMax Discover system (Promega) with a donor emission wavelength of 450 nm and an acceptor emission wavelength of 600 nm. mBU were calculated by dividing the acceptor emission values (600 nm) by the donor emission values (450 nm). For NanoBRET studies with SYK, background corrected mBU were calculated by subtracting the no tracer wells from the tracer-containing wells and multiplying by 1,000. Where the results are reported as a BRET fold change, this is the BRET ratio for the vehicle-treated sample divided by BRET for the inhibitor-treated sample.
HEK293 cells were transfected with constructs of SYK(WT) or SYK(KD) tagged with NL on the C- or N-terminus and SYK GoF variants tagged with NL on the C-terminus. Tracer 8 (20X) was prepared from a 400 μM stock solution in DMSO with tracer dilution buffer (Promega, #N291B) and 20% DMSO, with a final assay plate concentration of 1% DMSO. […]

Row | BRET signal (background subtracted) (SYK(WT)-NL) | IC50 (SYK) [µM] | BRET signal (SYK(KD)-NL or NL-SYK(KD)) | decrease in potency compared to the parent inhibitor MRL-SYKi (SYK; ratio of enzymatic IC50) [fold] | SMILES | inhibition of eight kinases ([1]; at 300 nM) | IC50 ([1]; dose-response, read-out: enzymatic IC50 of the closest off-target) [µM] | closest off-target less potent compared to SYK [1] [fold]
1 |  |  |  |  | NC(=O)c1cnc(N[C@@H]2CCCC[C@@H]2N)nc1Nc1cccc(-n2nccn2)c1 [Tracer P505-15] | greater than 80% | 0.081 | 81
2 | > 10 mBU | 1.4 | did not generate a BRET signal |  | CC1(C)Oc2ccc(Nc3nc(Nc4cccc(OCC(=O)NCCNC(=O)CCc5ccc6n5[B-](F)(F)[N+]5=C(c7ccc[nH]7)C=CC5=C6)c4)ncc3F)nc2NC1=O [Tracer 6] |  |  | 
3 |  | 0.097 |  |  | Cn1ncc2ccc(-c3cn4ccnc4c(Nc4ccc(N5CCNCC5)cc4)n3)cc21 [Tracer 3] |  |  | 
4 | did not generate a BRET signal | > 10 | did not generate a BRET signal |  | Cn1ncc2ccc(-c3cn4ccnc4c(Nc4ccc(N5CCN(C(=O)CCc6ccc7n6[B-](F)(F)[N+]6=C(c8ccc[nH]8)C=CC6=C7)CC5)cc4)n3)cc21 [Tracer 4] |  |  | 
5 | > 10 mBU | 1.1 | did not generate a BRET signal |  | CC1(C)Oc2ccc(Nc3nc(Nc4cccc(OCC(=O)NCCOCCOCCOCCNC(=O)CCc5ccc6n5[B-](F)(F)[N+]5=C(c7ccc[nH]7)C=CC5=C6)c4)ncc3F)nc2NC1=O [Tracer 5] |  |  | 
6 | > 10 mBU | 0.47 |  | 15.6 | Cc1cc(Nc2nccc(C)n2)cc(-c2cnc([C@@]3(O)CC[C@H](C(=O)NCCOCCOCCOCCNC(=O)CCc4ccc5n4[B-](F)(F)[N+]4=C(c6ccc[nH]6)C=CC4=C5)C(C)(C)C3)s2)c1 [Tracer 7] |  |  | 
7 | 4 mBU | 2.4 | did not generate a BRET signal |  | O=C(CCc1ccc2n1[B-](F)(F)[N+]1=C(c3ccc[nH]3)C=CC1=C2)NCCOCCOCCOCCC(=O)N1CCN(c2ccc(Nc3nc(-c4ccc5cn[nH]c5c4)cn4ccnc34)cc2)CC1 [Tracer 2] |  |  | 

— article PMC13089524, “Development of SYK NanoBRET cellular target engagement assays for gain–of–function variants” (Frontiers in chemical biology, 2024)
